Assay results published in article PMC11702208 (RSC Advances, 2025).
Where “and” joins values, the source holds several entries; their conditions need not be identical. Equal values may be shown once.

Test system: T-47D cells
Assay: Annexin V-FITC/PI apoptosis assay
Format: cell-based

## CCN(CC)c1ccc(C=NNC(=O)CSc2nc3ccccc3c(=O)n2Cc2ccc(S(N)(=O)=O)cc2)c(O)c1 [Compound 5, 4-((2-((2-(2-(4-(Diethylamino)-2-hydroxybenzylidene)hydrazineyl)-2-oxoethyl)thio)-4-oxoquinazolin-3(4H)-yl)methyl)benzenesulfonamide]
  Apoptosis Early: 9.3% and 9.28%
  Apoptosis Late: 14.8% and 14.75%
  Apoptosis Total: 31.07%
  Necrosis: 7.04%
